Measurements: patent publication US20170172953A1, “SELF-ASSEMBLING DRUG DELIVERY VEHICLES WITH IONICALLY CROSS-LINKED DRUGS” (WILLIAM MARSH RICE UNIVERSITY, priority 2014, published 2017)
“Also recorded” adds a separate entry of the source.

How the values were obtained:
[1] = Parallel plate rheometry of crosslinked SLac peptide hydrogels; type: physicochemical; settings: drug as crosslinker of 1 w % SLac hydrogel, pH 7.4
Procedure: Peptide solutions were made by dissolving lyophilized SLac in 298 mM sucrose-water at a concentration of 2 w %, pH 7.4. Hydrogels were constructed by addition of Hank's balanced salt solution (HBSS) at a 1:1 ratio. Multivalent drugs were added at similar concentrations, approximating physiological doses, to SLac solutions with final concentrations of: SLac—0.4 mM (1 w %); concentration of positive lysine charges—0.8 mM; suramin—3.8 mM (0.5 w %) or 0.38 mM (0.05 w %); trypan blue—3.2 mM (0.2 w %); heparin ˜2.78 mM (5 w %); clodronate disodium—3.4 mM; phosphate buffer—38 mM and 5 mM; and 0.9% saline. Negatively charged polyvalent ions in buffer solution facilitated intermolecular ionic interactions with lysine residues, crosslinking the hydrogel. Rheological behavior of peptide hydrogels was determined using an 8 mm parallel plate geometry at a gap of 250 μm. 50 μL of hydrogel was constructed and, within 30 min, placed on stainless steel plates of a rheometer. A frequency sweep (0.1-100 Hz, at constant 1% strain), strain sweep (0-1000%/strain, at 1 Hz) and shear recovery (1% strain for 30 min, 100% strain for 60 s, 1% strain for 30 min) were performed. We ensured the phase angle δ≦90° to ensure no slipping.

[2] = Suramin drug loading and release from MDP hydrogel into HBSS; type: physicochemical
Procedure: Suramin was dissolved in 0.9% saline and loaded into MDP hydrogel (100 μL of SLac dissolved in 298 mM sucrose+100 μL of drug/saline) in microcentrifuge tubes. 1 mL of release media (HBSS) was added to gels placed in a humidified 5% CO2 cell culture incubator at 37° C. 200 μL aliquots of release media were assayed, with replenishment, daily for 30 days. To determine short term release kinetics, in a separate setup, aliquots were assayed at 1, 2, 4, 8, 12, 24, 48 and 72 hr. Concentration of drug was determined using UV spectrophotometry at 313 nm, n=5. Mass release data were plotted as a function of cumulative release of drug in Sigmaplot. Drug release was modeled using the Korsmeyer-Peppas equation.

release exponent (t) of Korsmeyer-Peppas model ([2]; 1 mg/mL loaded gels): ≈ 1.0 | mechanism of release ([2]; 10 mg/mL loaded gels): diffusion dependent | release exponent (t) of Korsmeyer-Peppas model ([2]; 10 mg/mL loaded gels): ≈ 0.5 | Maximum cumulative suramin concentration ([2]; high loading): 0.6 mg/mL | Maximum cumulative suramin concentration ([2]; low loading): 0.04 mg/mL | drug release ([2]; over a 20 day period, from SLac-based scaffolds): approximately 50% | retention of drug ionically cross-linked ([2]; over a period of 30 days): up to 40% | drug releasing from hydrogel scaffolds ([2]; over the first 30 days, depending on loading concentration): 40-60%
SMILES: Cc1ccc(C(=O)Nc2ccc(S(=O)(=O)O)c3cc(S(=O)(=O)O)cc(S(=O)(=O)O)c23)cc1NC(=O)c1cccc(NC(=O)Nc2cccc(C(=O)Nc3cc(C(=O)Nc4ccc(S(=O)(=O)O)c5cc(S(=O)(=O)O)cc(S(=O)(=O)O)c45)ccc3C)c2)c1 [suramin]
mechanical strength, storage modulus G′ / loss modulus G″ [1]: order of magnitude increase in mechanical strength with increase in concentration; also recorded: an order of magnitude higher G′/G″ | mechanism of release ([2]; 1 mg/mL loaded gels): non-Fickian diffusion/Case II transport dependent
